Reference: patent US10265327B2, “V1A antagonists to treat phase shift sleep disorders” (Hoffmann-La Roche Inc., priority 2013, dated 2019)

Biological target: T1, human V1b receptor (hV1b) (Homo sapiens, UniProt P47901)
T1 construct: expressed in transfected cells; host or cells: HEK cells, transient transfection; membrane preparation
T1 sequence (P47901 1-424): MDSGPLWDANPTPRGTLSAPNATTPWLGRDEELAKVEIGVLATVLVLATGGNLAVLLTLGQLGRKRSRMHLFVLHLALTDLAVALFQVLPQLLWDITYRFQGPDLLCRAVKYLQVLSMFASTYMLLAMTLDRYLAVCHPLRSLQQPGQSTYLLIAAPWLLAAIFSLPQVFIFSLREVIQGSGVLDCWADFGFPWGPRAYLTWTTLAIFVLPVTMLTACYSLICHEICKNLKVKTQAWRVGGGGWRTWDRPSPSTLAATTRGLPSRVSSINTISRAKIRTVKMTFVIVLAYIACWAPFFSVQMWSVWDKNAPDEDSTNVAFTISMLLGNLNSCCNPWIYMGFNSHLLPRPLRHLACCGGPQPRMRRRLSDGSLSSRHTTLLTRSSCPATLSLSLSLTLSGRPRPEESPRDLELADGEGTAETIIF
Test: Radioligand binding assay (3H-AVP, SPA), human V1b
Conditions: (n); 1 nM 3H-AVP; read-out: pKi V1b Human (converted)
Method: The test compound was initially dissolved in DMSO at a concentration of 10 mM. Subsequent dilutions were made in assay buffer with a maximum final concentration of 0.2% DMSO.
Recombinant vasopressin V1a (human: hV1a; mouse: mV1a), V1b (human: hV1b) were independently expressed in human embryonic kidney (HEK) cells using transient transfection. The cell membranes expressing the various receptors were prepared by homogenizing (using Polytron homogenizer) the cell culture pellet in lysis buffer (50 mM HEPES, 1 mM EDTA, 10 mM MgCl2, pH 7.4 with protease inhibitors), then centrifuging the resulting suspension at 500 g for 20 min at 4° C. The supernatant was subsequently re-centrifuged at 43,000 g for 1 hour at 4° C. […] The concentration of protein was determined, and the membranes were aliquoted and stored at −80° C. until further use.
All radioligand binding assays were carried out in 96-well plates in the presence of 1 nM ^3H-AVP (vasopressin) radioligand, and 10 concentrations of test compound (ranging from 27 μM-1 nM or 2.7 μM-0.1 nM for hV1a binding). […] Filtration assays were terminated by rapid filtration under vacuum through GF/C filters, presoaked for 5 min with buffer B containing Tris 50 mM, MgCl2 5 mM, 0.1% BSA (pH 7.4), followed by 5×0.4 ml washes of ice-cold buffer B. For both SPA and filtration plates, bound ligand was determined using a Packard Topcount scintillation counter. […]

Question: `CN1Cc2cc(Cl)ccc2-n2c(nnc2[C@H]2CC[C@H](Oc3ccccn3)CC2)C1` [Example 1, trans-8-chloro-5-methyl-1-(4-pyridin-2-yloxycyclohexyl)-4,6-dihydro-[1,2,4]triazolo[4,3-a][1,4]benzodiazepine] was tested. Which Ki did it give?
Answer: > 31.6 µM
